Key:
[1] = test system: T1, wild-type (GRR) human STING cGAMP binding domain (residues 155-341); experiment: Differential Scanning Fluorimetry (DSF), stability of STING protein against thermal denaturation; settings: 100 uM compound, 3 uM target protein
T1 construct: His-TEV-hSTING (WT); TEV protease cleavage site (N); made in house; host or cells: E. coli BL21 DE3
Description: Dye fluorescence is quenched in aqueous environment and increases upon association of the dye with the hydrophobic parts of the unfolding protein. […] The inflection point of the curve represents the “melting” temperature of the protein (Tm) which is calculated numerically using the Boltzmann equation.
Method: The thermal stability of the STING protein was measured using a specific expression construct of the cGAMP binding domain of wild-type (GRR) human STING comprising residues 155-341 and a N-terminal 8x His-tag in assay buffer containing 20 mM Tris, 150 mM NaCl at pH7.5.
The assay uses Hard-Shell®PCR Plates 384-Well CLR/WHT (Catalog #HSP3805, BIO-RAD), Microseal®‘B’ Adhesive Seals for PCR Plates (Catalog #MSB-1001, BIO-RAD) and was run on a CFX384 Real-Time System (Bio-Rad).
A DMSO stock solution of SYPRO orange (SIGMA S5692-500UL) was prepared.
Compound stock solutions (10 mM in DMSO) were diluted 1:2 in DMSO to an intermediate compound concentration of 5 mM and then further diluted 1:40 in assay buffer resulting in a compound concentration of 125 μM and 2.5% DMSO.
Fluorescent dye stock solution (5000×SYPRO Orange) was then mixed with target protein and buffer to a concentration of 15 uM Protein and 25×SYPRO Orange. 2 ul of this protein-dye-mixture was added to 8 ul compound solution. Final volume was 10 uL. 3-6 well positions were used as negative control (protein with 2% DMSO). The plates were prepared for duplicate measurement and centrifuged for 2 min at 1000 g. In the measurement, 160 cycles of 0.5° C. were used (temperature ramp 15 s/cycle, 15° C. to 95° C.).
Final Assay concentrations for compound characterization were as follows:
100 uM compound, 3 uM target protein, 5×SYPRO Orange, 2% DMSO in 10 ul. All dispensing steps were performed using a HamiltonStar pipetting robot (Hamilton).
Dissociation curves were processed in Bio-Rad CFX Manager. Peak type was set to “negative”.
Compound codes for screen were assigned in the plate layout.
Two replicates of TM measurements were averaged, and the standard deviation was calculated. In cases of SD>1.5° C. the measurement was repeated.
The melting point (Tm) obtained for STING protein alone was subtracted from T obtained for protein incubated with ligand to generate ΔTm values.
Protein production and purification: The protein used for the biophysical experiments was a recombinant human STING protein comprising its cytosolic ectodomain. A codon optimized DNA sequence (for expression in Escherichia coli) encoding amino acid residues 155 to 341 (Swiss Prot Q86WV6) of human STING (WT) was synthesized by GeneArt (Regensburg, Germany) and inserted into a pET17b E. coli expression vector. The protein construct encodes an N-terminal 8× His-tag followed by tobacco etch virus protease (TEV) cleavage site and the above STING gene sequence. The resulting protein sequence for the used STING variant is listed below:
For expression of recombinant human STING above construct was transformed into E. coli BL21 DE3 strain and grown in shake flasks in LB-medium at 37° C. Expression was induced by addition of isopropyl β-D-1-thiogalactopyranoside to a final concentration of 1 mM and cultures shaken overnight. Cell pellets were centrifuged and stored at −70° C. until further use. Protein was purified by cell thawing in lysis buffer (20 mM TRIS-HCl, pH 8, 300 mM NaCl, 2 mM mercaptoethanol, 20 mM imidazole, Complete Protease Inhibitor (Roche) and DNase (Roche)), followed by metal affinity purification using Ni-NTA resins and elution buffer consisting of 20 mM TRIS-HCl, pH 8, 300 mM NaCl, 2 mM mercaptoethanol, 300 mM imidazole and size exclusion chromatography in running buffer (20 mM TRIS-HCl, pH 8, 100 mM NaCl, 2 mM DTT). The peak fraction was collected and concentrated to 2.5 mg/mL.

[2] = test system: T2, STING; experiment: Human whole blood assay (HWBA), cGAMP-stimulated IFNα2α production; assay type: cell-based; settings: human whole blood stimulated by cGAMP
T2 construct: from tissue; host or cells: human whole blood from healthy donors
Description: For the detection of STING inhibition in physiological environment human whole blood was stimulated by the cyclic dinucleotide cGAMP. Pathway activity was monitored by measuring the IFNα2α production.
Assay method: Compounds were delivered as 10 mM DMSO solution and serial diluted and transferred to the 96-well Cell culture Plate (Corning #3595), prefilled with 20 μl OptiMEM (Gibco #11058-021) in each well, using an Echo acoustic dispenser. Typically, 8 concentrations were used with the highest concentration at 10 μM in the final assay volume followed by ^˜1:5 dilution steps. DMSO concentration was set to 0.1% in the final assay volume. The 96 well assay plate contained 9 test compounds, a reference compound and DMSO in control wells.
Collection of human whole blood from 3 or more healthy donors (male or female, no medication for 7 days, exception contraceptive and thyroxine) as Na-citrate blood (e.g. 3.8% in Monovettes from Sarstedt) is conducted in parallel. Whole blood was kept at room temperature for a maximum of 3 hours after collection until use in the assay.
160 μl of the whole blood samples were transferred to each well of the 96-well assay plates filled with compound/OptiMEM. All assay plates are prepared as duplicates with blood from different donors. Blood plates were kept at room temperature for 60 minutes and continuous shaking with 450 rpm, covered with the lid, but not sealed.
A 10× cGAMP assay solution was diluted from a 2 mM stock solution in 1×HBSS immediately before use at room temperature. 20 μl of the 10× cGAMP/HBSS were added to all compound and all high control wells, whereas HBSS only was added to all low control wells.
After covering assay plates with aera seals and the lid, blood plates were kept at room temperature for 30 minutes and continuous shaking with 450 rpm, followed by an overnight incubation of 22 h at 37° C. in the incubator, without shaking.
For the detection of IFNα-2α in human plasma, the biotinylated capture antibody (Antibody set IFNA2, Meso Scale Diagnostics #B21VH-3, including coating and capture antibody) was diluted 1:17.5 in Diluent 100 (Meso Scale Diagnostics #R50AA-4, according to the manufacturer. U-Plex MSD GOLD 96-well Small Spot Streptavidin SECTOR Plates (Meso Scale Diagnostics #L45SA-5) were coated with 25 μl diluted capture antibody. Coated plates were incubated for 60 min at room temperature under continuous shaking at 700 rpm. MSD IFNα-2α plates were washed three times with 150 μl wash buffer (1×HBSS, 0.05% Tween).
After blocking the plates with 100 μl block solution/well (1×HBSS with 0.2% Tween, 2% BSA) for 60 min at room temperature and continuous shaking at 700 rpm, plates were emptied as dry as possible by dumping just before continuing with the human plasma. Whole Blood assay plates were centrifuged at 1600 rpm for 10 minutes. 25 μl of supernatant was transferred with a pipetting robotics from each whole blood plate to the corresponding IFNα-2α plate. Plates were sealed with microplate seals and kept at room temperature again under continuous shaking at 700 rpm for two hours. Next MSD IFNα-2α plates were washed three times with 150 μl wash buffer (1×HBSS, 0.05% Tween), before adding 25 μl MSD SULFO-TAG IFNα-2α Antibody solution (1:100 diluted in Diluent 3 (Meso Scale Diagnostics #R50AP-2) to each well of the plates. Afterwards plates were sealed with microplate seals and kept at room temperature again under continuous shaking at 700 rpm for two hours. Finally, MSD IFNα-2α plates were washed three times with 150 μl wash buffer (1×HBSS, 0.05% Tween). 150 μl 2× Read buffer was added to each well and plates were immediately measured with the MSD Sector S600 Reader using the vendor barcode.
Data evaluation and calculation: For data evaluation and calculation, % control calculation of each well was based on the mean of high (cGAMP stimulated control) and mean of low (unstimulated control) controls by using the following formula: […]

Row | Compound | DSF ΔTm (K) [1] [K] | IC50 [2] [nM]
1 | CNC(=O)c1ccc(-c2nc(-c3cccc4nn(-c5cn(C6CC6)nc5OC)cc34)c(C3CC3)n2C)c(OC(F)(F)F)c1 [Example 1, 4-{5-cyclopropyl-4-[2-(1-cyclopropyl-3-methoxy-1H-pyrazol-4-yl)-2H-indazol-4-yl]-1-methyl-1H-imidazol-2-yl}-N-methyl-3-(trifluoromethoxy)benzamide] | 28 | 82
2 | Cn1c(-c2ccc(P(C)(C)=O)cc2OC(F)(F)F)nc(-c2cccc3nn(-c4cc(C(F)(F)F)[nH]n4)cc23)c1C1CC1 [Example 21, 4-{5-cyclopropyl-2-[4-(dimethylphosphoryl)-2-(trifluoromethoxy)phenyl]-1-methylimidazol-4-yl}-2-[5-(trifluoromethyl)-1H-pyrazol-3-yl]indazole] | 29 | 130

From US20250333398A1, “MONOARYL AND HETARYL SUBSTITUTED INDAZOLES AND BENZIMIDAZOLES AS STING ANTAGONISTS AND THE USE THEREOF AS MEDICAMENT” (Boehringer Ingelheim International GmbH, priority 2024, published 2025)
